# Assay results as given in patent US4157347A, “N-cyano isothioureas” (Bristol-Myers Company, priority 1978, dated 1979).
# Entries after “also recorded” stand apart in the source; their conditions may differ.
# What was measured:
# [1] = system: gastric acid output; assay: Gastric antisecretory activity in the two hour pylorus ligated (Shay) rat; type: in vivo, rat (male Long Evans)
# Description: Determination of Gastric Antisecretory Activity in the Two Hour Pylorus Ligated (Shay) Rat
# The pyloric ligation procedure in the rat was designed by Shay et al., Gastroenterology, 5,53 (1945) for the study of perforating gastric ulcers; however, as the method became known, it was also employed as a means of studying rat gastric secretion, Shay et al., Gastroenterology, 26, 906 (1954), Brodie, D. A., Am. J. Dig. Dis., 11, 231 (1966). A modification of this procedure is presently used to evaluate compounds for gastric antisecretory activity.
# Male Long Evans rats, 280-300 gm., are used. The animals are placed in individual cages and fasted for 24 hours with free access to water. Under ether anesthesia, the stomach is reached through a midline incision, and a cotton-thread ligature is placed around the pylorus. After wound closure, ether administration is stopped and either BL-5641, cimetidine or vehicle are administered intraperitoneally in a volume of […]. BL-5641 and cimetidine are solubilized with one equivalent of HCl and brought to the proper volume with water. The animals are returned to their cages from which the water bottles have been removed and two hours later are sacrificed with ether. The stomach is removed and the two hour gastric collection is drained into a graduated test tube for volume determination. Titratable acidity is measured by titrating a one ml. sample to pH 7.0 with 0.02 N NaOH, using an Autoburet and an electrometric pH meter (Radiometer). Titratable acid output is calculated in microequivalents by multiplying the volume in milliliters by the acid concentration in milliequivalents per liter. The percent inhibition of acid output is calculated as follows [formula]
# [2] = target: T1, histamine H2-receptors (Cavia porcellus, UniProt P47747); assay: Histamine H2-receptor antagonism, isolated guinea pig right atria assay; type: cell-based
# T1 construct: The spontaneously beating right atrium was dissected free from other tissues; from tissue; host or cells: isolated spontaneously beating right atrium of male Hartley guinea pigs
# Procedure: Subsequent investigations by Hughes and Coret, Proc. Soc. […] Black et al., Agents and Actions, 3, 133 (1973) and Brimblecombe et al., Fed. […] The present comparative studies were carried out using a modification of the procedure reported by Reinhardt et al., Agents and Actions, 4, 217 (1974).
# Male Hartley strain guinea pigs (350-450 gm.) were sacrificed by a blow on the head. The heart was excised and placed in a Petri dish of oxygenated (95% O2, 5% CO2) modified Krebs solution (g./liter: NaCl 6.6, KCl 0.35, MgSO4.7 H2 O 0.295, KH2 PO4 0.162, CaCl2 0.238, NaHCO3 2.1 and dextrose 2.09). The spontaneously beating right atrium was dissected free from other tissues and a silk thread (4-0) attached to each end. The atrium was suspended in a 20 ml. muscle chamber containing oxygenated modified Krebs solution maintained at 32° C. Atrial contractions were recorded isometrically by means of a Grass FT 0.03 force displacement transducer and recordings of contractile force and rate were made with a Beckman RP Dynograph.
# A resting tension of 1 g. was applied to the atrium and it was allowed to equilibrate for 1 hour.
# Concentration-response curve displacement factors were calculated as follows: [formula] The factor obtained for BL-5641 was then expressed as a ratio of the factor obtained for cimetidine. [formula]
# [3] = system: histamine-induced gastric acid output; assay: Gastric antisecretory activity in the gastric fistula dog (histamine-induced gastric acid output); type: in vivo, dog (beagle)
# Procedure: Determination of Gastric Antisecretory Activity in the Gastric Fistula Dog
# Thomas type [Thomas, J. E., Proc. Soc. exp. Biol. Med., 46, 260 (1941)] stainless steel cannulae are inserted into the stomachs of beagle dogs (10-12 kg.) just orad to the pyloric gland area near the greater curvature to provide a chronic gastric fistula. Animals are allowed to recover for at least two months before any testing is done. Dogs are fasted overnight (~18 hours) with water ad lib prior to each experiment. The dogs are placed in a sling and an eight inch inside needle catheter (C. R. Baird, Inc.) with a two inch 17 gauge needle is inserted into a leg vein for purposes of drug administration. Gastric secretions are collected every 15 minutes by gravity drainage from the opened cannula. […] A modification of the procedure described by Grossman and Konturek, Gastroenterology, 66, 517 (1974) was followed. […] Each 15 minute sample of gastric juice is measured to the nearest 0.5 ml. and titratable acidity against 0.02 N NaOH (endpoint pH 7.0) is measured with an Autoburet and pH meter (radiometer). The percent inhibition of acid output is calculated as described in the pylorus ligated rat procedure.
# T1 sequence (P47747 whole entry): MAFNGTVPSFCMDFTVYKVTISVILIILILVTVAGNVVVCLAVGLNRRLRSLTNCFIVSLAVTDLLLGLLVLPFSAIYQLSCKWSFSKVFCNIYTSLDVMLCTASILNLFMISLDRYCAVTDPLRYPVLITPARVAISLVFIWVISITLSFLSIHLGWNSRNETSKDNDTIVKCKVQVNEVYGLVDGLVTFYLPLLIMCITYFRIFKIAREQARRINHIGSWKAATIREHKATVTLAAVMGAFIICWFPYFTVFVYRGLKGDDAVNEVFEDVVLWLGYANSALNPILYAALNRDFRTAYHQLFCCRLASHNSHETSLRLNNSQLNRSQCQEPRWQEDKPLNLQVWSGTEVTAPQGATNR
smiles,measurement,setting,value
"C#CCN=C(NC#N)NCCSCc1[nH]cnc1C [BL-5641, N-Cyano-N'-{2-[(4-methyl-5-imidazolyl)methylthio]ethyl}-N""-propargylguanidine]",% Inhibition of Acid Output,"[1]; 10 μMole/kg. ip, 2 h (BL-5641 2.76 mg/kg; cimetidine 2.5 mg/kg)",37%
same,% Inhibition of Acid Output,"[1]; 20 μMole/kg. ip, 2 h (BL-5641 5.53 mg/kg; cimetidine 5 mg/kg)",61%
same,% Inhibition of Acid Output,"[1]; 40 μMole/kg. ip, 2 h (BL-5641 11.1 mg/kg; cimetidine 10 mg/kg)",80%
same,ED50,"[1]; Rattus norvegicus, ip, 2 h, read-out: ED50 (inhibition of acid output)",~11 µmol/kg
same,potency in inhibition of gastric acid output vs cimetidine,[1]; in words,at least as potent as cimetidine; also recorded: more potent than cimetidine
same,Histamine ED50 With 95% Confidence Limits,"[2]; histamine ED50 in presence of test compound 1 × 10^-5 M, 30 min incubation",12.44 µg/mL
same,histamine H2-receptor antagonist potency vs cimetidine,"[2]; isolated guinea pig atria, in words",more potent than cimetidine
same,Concentration-Response Curve Displacement Factor,[2]; test compound 1 × 10^-5 M,32.7
same,% Inhibition Acid Output,"[3]; 0.75 μM/kg. iv, 15 min, dog 23553, N=1",51%
same,% Inhibition Acid Output,"[3]; 0.75 μM/kg. iv, 30 min, dog 23553, N=1",38%
same,% Inhibition Acid Output,"[3]; 0.75 μM/kg. iv, 45 min, dog 23553, N=1",28%
same,% Inhibition Acid Output,"[3]; 0.75 μM/kg. iv, 60 min, dog 23553, N=1",28%
same,% Inhibition Acid Output,"[3]; 0.75 μM/kg. iv, 75 min, dog 23553, N=1",31%
same,% Inhibition Acid Output,"[3]; 0.75 μM/kg. iv, 90 min, dog 23553, N=1",43%
same,% Inhibition Acid Output,"[3]; 0.75 μM/kg. iv, 105 min, dog 23553, N=1",42%
same,% Inhibition Acid Output,"[3]; 0.75 μM/kg. iv, 120 min, dog 23553, N=1",46%
same,% Inhibition Acid Output,"[3]; 1.5 μM/kg. iv, 15 min, dog 24895, N=1",82%
same,% Inhibition Acid Output,"[3]; 1.5 μM/kg. iv, 30 min, dog 24895, N=1",72%
same,% Inhibition Acid Output,"[3]; 1.5 μM/kg. iv, 45 min, dog 24895, N=1",53%
same,% Inhibition Acid Output,"[3]; 1.5 μM/kg. iv, 60 min, dog 24895, N=1",49%
same,% Inhibition Acid Output,"[3]; 1.5 μM/kg. iv, 75 min, dog 24895, N=1",33%
same,% Inhibition Acid Output,"[3]; 1.5 μM/kg. iv, 90 min, dog 24895, N=1",7%
same,% Inhibition Acid Output,"[3]; 1.5 μM/kg. iv, 105 min, dog 24895, N=1",0%
same,% Inhibition Acid Output,"[3]; 1.5 μM/kg. iv, 120 min, dog 24895, N=1",0%
same,% Inhibition Acid Output,"[3]; 3 μM/kg. iv, 15 min, dog 23606, N=1",60%
same,% Inhibition Acid Output,"[3]; 3 μM/kg. iv, 30 min, dog 23606, N=1",59%
same,% Inhibition Acid Output,"[3]; 3 μM/kg. iv, 45 min, dog 23606, N=1",36%
same,% Inhibition Acid Output,"[3]; 3 μM/kg. iv, 60 min, dog 23606, N=1",34%
same,% Inhibition Acid Output,"[3]; 3 μM/kg. iv, 75 min, dog 23606, N=1",32%
same,% Inhibition Acid Output,"[3]; 3 μM/kg. iv, 90 min, dog 23606, N=1",42%
same,% Inhibition Acid Output,"[3]; 3 μM/kg. iv, 105 min, dog 23606, N=1",24%
same,% Inhibition Acid Output,"[3]; 3 μM/kg. iv, 120 min, dog 23606, N=1",0%
same,% Inhibition Acid Output,"[3]; 6 μM/kg. iv, 15 min, dog 22619, N=1",82%
same,% Inhibition Acid Output,"[3]; 6 μM/kg. iv, 30 min, dog 22619, N=1",99%
same,% Inhibition Acid Output,"[3]; 6 μM/kg. iv, 45 min, dog 22619, N=1",99%
same,% Inhibition Acid Output,"[3]; 6 μM/kg. iv, 60 min, dog 22619, N=1",95%
same,% Inhibition Acid Output,"[3]; 6 μM/kg. iv, 75 min, dog 22619, N=1",78%
same,% Inhibition Acid Output,"[3]; 6 μM/kg. iv, 90 min, dog 22619, N=1",76%
same,% Inhibition Acid Output,"[3]; 6 μM/kg. iv, 105 min, dog 22619, N=1",52%
same,% Inhibition Acid Output,"[3]; 6 μM/kg. iv, 120 min, dog 22619, N=1",53%
same,% Inhibition Acid Output,"[3]; 12 μM/kg. iv, 15 min, dog 24136, N=1",66%
same,% Inhibition Acid Output,"[3]; 12 μM/kg. iv, 30 min, dog 24136, N=1",99%
same,% Inhibition Acid Output,"[3]; 12 μM/kg. iv, 45 min, dog 24136, N=1",99%
same,% Inhibition Acid Output,"[3]; 12 μM/kg. iv, 60 min, dog 24136, N=1",99%
same,% Inhibition Acid Output,"[3]; 12 μM/kg. iv, 75 min, dog 24136, N=1",99%
same,% Inhibition Acid Output,"[3]; 12 μM/kg. iv, 90 min, dog 24136, N=1",93%
same,% Inhibition Acid Output,"[3]; 12 μM/kg. iv, 105 min, dog 24136, N=1",91%
same,% Inhibition Acid Output,"[3]; 12 μM/kg. iv, 120 min, dog 24136, N=1",73%
same,duration of activity vs cimetidine,"[3]; equal (equimolar) doses iv, in words",of longer duration with BL-5641 than with cimetidine; also recorded: longer duration of activity than cimetidine at equal doses
same,degree of inhibition of gastric acid output vs cimetidine,"[3]; equimolar doses iv, in words",consistently greater
same,"inhibitor of gastric acid output, potency vs cimetidine","[3]; iv, in words",more potent and/or longer acting than cimetidine; also recorded: more potent than cimetidine
same,onset of effect on gastric acid output,"[3]; iv, in words",immediate inhibitory effect on gastric acid output
